A melting point compilation (Tetko et al.)

Row | SMILES | melting point [°C]
1 | Cn1ccnc1-c1cc(Cl)ccn1 | 77 to 79
2 | Nc1noc(-c2ccc(Cl)cc2)n1 | 255 to 257
3 | COC(=O)N(C)c1ccc([N+](=O)[O-])cc1 | 108 to 110
4 | O=C(O)c1cccc(Oc2ccc(Cl)cc2)c1 | 164 to 166
5 | O=C(O)C1CC(=O)N(c2cccc(Cl)c2)C1 (stereo not drawn) | 133 to 135
6 | CS(=O)(=O)N1CCC(=O)CC1 | 97 to 99
7 | CCOC(=O)c1cc(Br)cc(F)c1N | 48 to 50
8 | Cc1cccc2c1CCC2=O | 94 to 96
9 | O=C1Nc2ccccc2C1O (stereo not drawn) | 161 to 163
10 | Oc1ccc(-c2noc(C3CCCO3)n2)cc1 (stereo not drawn) | 96 to 98
11 | Cc1c(C(=O)O)sc2ccsc12 | 235 to 237
12 | CNCC(O)COc1ccccc1C(F)(F)F (stereo not drawn) | 124 to 127
13 | CC1(C)CCC(C)(O)CC1 | 49 to 51
14 | O=C(O)CSc1ccc(O)cc1 | 141 to 143
15 | c1ccc(CNc2cccnc2)nc1 | 50 to 52
16 | N#Cc1ccc2nc(Cl)ccc2c1 | 208 to 210
17 | CCOc1cc(N)c(Br)cc1OCC | 50 to 52
18 | O=C1CCC2(CC1)NC(=O)NC2=O | 199 to 201
19 | Cc1cc(Br)cc(C=O)c1O | 68 to 70
20 | O=S(=O)(Cl)c1ccccc1-c1ccccc1 | 94 to 96
21 | O=C(O)CCc1nc2sc3c(c2c(=O)[nH]1)CCCC3 | 140 to 142
22 | CCOC(=O)c1cc([N+](=O)[O-])cnc1C | 45 to 52
23 | COC(=O)c1nc2nc(C(C)C)cc(Cl)n2n1 | 104 to 106
24 | OCc1ccccc1Oc1ccc(I)cc1 | 65 to 67
25 | Cc1nc(-c2ccc(NC(=O)OCC(F)(F)F)cc2)cc(=O)[nH]1 | 246 to 248

Row | SMILES | melting point [°C]
26 | NC1(c2ccc(Cl)cc2)CCOCC1 | 50 to 52
27 | Cc1ccc(-n2ncc(Cl)c(Cl)c2=O)cc1Cl | 206 to 208
28 | CCc1nc2sccc2c(=O)[nH]1 | 199 to 201
29 | O=C(O)C1CCc2nnc(C(F)F)n2C1 (stereo not drawn) | 215 to 217
30 | Cc1c(C(=O)O)cccc1N1CCNC1=O | 221 to 223
31 | Cc1[nH]n(C(N)=S)c(=O)c1CCO | 153 to 155
32 | O=C(O)c1ccccc1CO | 119 to 121
33 | CC(C)(C)c1ccccc1S(=O)(=O)Cl | 59 to 61
34 | COC(=O)c1cc(OC)c(OC)c(OC)c1N | 44 to 45
35 | COc1cc2ncc(O)nc2cc1OC | 266 to 268
36 | O=C(O)c1cnn(-c2ccccc2)n1 | 183 to 185
37 | Cc1occc1C(=O)Nc1cc(N)ccc1F | 130 to 132
38 | NC(=O)CCc1ccc(F)cc1 | 105 to 107
39 | CNc1cnccn1 | 44 to 46
40 | Cc1cc(OC(C)C(=O)O)ccc1Cl (stereo not drawn) | 87 to 89
41 | O=C(O)CC1CSCCS1 (stereo not drawn) | 77 to 79
42 | CC(=O)Nc1cccc(C(C)O)c1 (stereo not drawn) | 103 to 105
43 | COc1ccc2nc(Cl)ccc2c1 | 103 to 105
44 | CCOC(=O)C(C#N)=Cc1ccncc1 | 101 to 103
45 | O=C(O)c1cncc(OCC(F)F)c1 | 166 to 168
46 | Cc1ccc(C)c(C(=O)c2cccc(S(C)(=O)=O)c2)c1 | 89 to 91
47 | Nc1ccc2nc3n(c(=O)c2c1)CCC3 | 221 to 223
48 | Nc1ccc2c(ccn2CCN2CCOCC2)c1 | 102 to 104
49 | COc1ccccc1CNc1cccc2cnccc12 | 118 to 120
50 | COC(=O)/C=C1\SCC(=O)N1CCCCl | 95 to 97

Row | SMILES | melting point [°C]
51 | CS(=O)(=O)c1cc(C(=O)O)ccc1Cl | 216 to 218
52 | O=C(c1cccnc1)c1cc2ccccc2o1 | 106 to 108
53 | COc1ccc(NS(=O)(=O)c2ccc(C(C)=O)cc2)cc1 | 121 to 123
54 | O=C(O)C1(O)CCCCC1 | 102 to 104
55 | Nc1ccc(Oc2cccc(Cl)c2)cc1 | 41 to 43
56 | Fc1ccc(-c2nnc(CCl)o2)cc1 | 138 to 140
57 | CCN(CC)S(=O)(=O)c1ccc(NC)c(N)c1 | 119 to 121
58 | CC(=O)Nc1scc(-c2cccs2)c1C(=O)O | 227 to 229
59 | FC(F)(F)c1nnc2ccc(Cl)nn12 | 69 to 71
60 | Cc1cccc(NC(=O)Nc2cccc3c2NCCC3)c1 | 168 to 170
61 | Clc1nc(CN2CCCCC2)nc2sc3c(c12)CCCC3 | 51 to 53
62 | Nc1ccc(F)c(F)c1N | 114 to 117
63 | O=C1CCCc2c(Cl)sc(Cl)c21 | 37 to 39
64 | COc1cc(C=O)ccc1OCc1csc(C)n1 | 86 to 88
65 | CN(CCS(=O)(=O)F)S(=O)(=O)c1ccc(F)cc1 | 129 to 131
66 | O=C1C=C(O)C(=O)c2ccccc21 | 192 to 194
67 | NNc1cn[nH]c(=O)c1Cl | 171 to 173
68 | Nc1cccc(-n2ccnn2)c1 | 118 to 120
69 | COc1cc(OC)c(S(=O)(=O)Cl)cc1Br | 193 to 195
70 | CC(C)(C)NS(=O)(=O)c1cc(N)ccc1F | 138 to 140
71 | CC1(NC(=O)c2ccnc(F)c2)CCCC1 | 78 to 80
72 | Oc1cccc2ccc(N3CCCCC3)nc12 | 69 to 71
73 | O=CN1CCN(C(=NS(=O)(=O)c2ccccc2)C(F)(F)F)CC1 | 114 to 116
